# According to patent publication US20080293712A1, “Benzo[C][2,7]Naphtyridine Derivatives, Methods of Making Thereof and Methods of Use Thereof” (WYETH, priority 2007, published 2008):
# Target: T1, PDK-1 (Homo sapiens, UniProt O15530)
# T1 sequence (O15530 1-556): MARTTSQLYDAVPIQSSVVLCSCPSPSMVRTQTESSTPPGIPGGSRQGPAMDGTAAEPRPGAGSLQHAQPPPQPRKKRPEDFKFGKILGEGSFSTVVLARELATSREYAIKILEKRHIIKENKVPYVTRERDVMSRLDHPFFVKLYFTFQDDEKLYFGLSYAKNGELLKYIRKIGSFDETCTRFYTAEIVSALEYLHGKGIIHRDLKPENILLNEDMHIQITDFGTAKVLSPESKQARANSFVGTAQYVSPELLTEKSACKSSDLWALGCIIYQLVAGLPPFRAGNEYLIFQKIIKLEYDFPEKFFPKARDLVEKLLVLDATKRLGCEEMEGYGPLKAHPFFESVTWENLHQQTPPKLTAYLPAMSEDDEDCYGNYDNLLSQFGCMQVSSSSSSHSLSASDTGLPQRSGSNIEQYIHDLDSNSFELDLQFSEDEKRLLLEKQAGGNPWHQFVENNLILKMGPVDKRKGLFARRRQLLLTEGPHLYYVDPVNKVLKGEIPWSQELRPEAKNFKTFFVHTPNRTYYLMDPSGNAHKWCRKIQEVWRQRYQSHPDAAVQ
# Assay: PDK-1 kinase inhibition ELISA assay (phosphorylation of His6-tagged SGK1 S422D by PDK-1)
# Format: biochemical
# Settings: PDK-1 ELISA, Table 11; read-out: Average IC50
row,IC50 [nM],Compound
1,26,"CCOC1(OCC)CCN(C[C@H](N)COc2cncc(-c3cc4c(cnc5cc(OC)c(OC)cc54)c(N)n3)c2)CC1 [Ib-5, 2-(5-{[(2S)-2-amino-3-(4,4-diethoxypiperidin-1-yl)propyl]oxy}pyridin-3-yl)-8,9-dimethoxybenzo[c]-2,7-naphthyridin-4-amine]"
2,9640,"COc1cc2ncc3c(N)nc(N4CC[C@H](N(C)C)C4)cc3c2cc1OC [Ib-67, 2-[(3S)-3-(dimethylamino)pyrrolidin-1-yl]-8,9-dimethoxybenzo[c]-2,7-naphthyridin-4-amine]"
3,81,"CCN(CC)CCNC(=O)c1ccc(Nc2cncc(-c3cc4c(cnc5cc(OC)c(OC)cc54)c(N)n3)c2)cc1 [Ib-191, 4-{[5-(4-amino-8,9-dimethoxybenzo[c][2,7]naphthyridin-2-yl)pyridin-3-yl]amino}-N-[2-(diethylamino)ethyl]benzamide]"
4,1430,"COCCOc1cc2ncc3c(N)nc(N(C)C(C)C)cc3c2cc1OC [Ia-45, N^2-isopropyl-9-methoxy-8-(2-methoxyethoxy)-N^2-methylbenzo[c]-2,7-naphthyridine-2,4-diamine]"
5,51,"COc1cc2ncc3c(N)nc(-c4cncc(Nc5ccccc5-c5ccccc5)c4)cc3c2cc1OC [Ib-204, 2-[5-(biphenyl-2-ylamino)pyridin-3-yl]-8,9-dimethoxybenzo[c][2,7]naphthyridin-4-Amine]"
6,42,"COc1cc2ncc3c(N)nc(-c4cncc(OC[C@@H](N)CN5CCN(c6ccncc6)CC5)c4)cc3c2cc1OC [Ib-107, 2-(5-{[(2S)-2-amino-3-(4-pyridin-4-ylpiperazin-1-yl)propyl]oxy}pyridin-3-yl)-8,9-dimethoxybenzo[c][2,7]naphthyridin-4-amine]"
7,1860,"COCCOc1cc2ncc3c(N)nc(N4CCCC4)cc3c2cc1OC [Ia-62, 9-Methoxy-8-(2-methoxyethoxy)-2-pyrrolidin-1-ylbenzo[c]-2,7-naphthyridin-4-amine]"
8,32,"CC[C@@H](COc1cncc(-c2cc3c(cnc4cc(OC)c(OC)cc43)c(N)n2)c1)NC(=N)N [Ib-251, (S)-1-(1-(5-(4-amino-8,9-dimethoxybenzo[c][2,7]naphthyridin-2-yl)pyridin-3-yloxy)butan-2-yl)guanidine]"
9,798,"COc1cc2ncc3c(N)nc(-c4cncc(OCC(=O)c5ccccc5)c4)cc3c2cc1OC [Ib-267, 2-{[5-(4-amino-8,9-dimethoxybenzo[c][2,7]naphthyridin-2-yl)pyridin-3-yl]oxy}-1-phenylethanone]"
10,6,"COc1cc2ncc3c(N)nc(-c4cncc(OC[C@@H](N)CO)c4)cc3c2cc1OC [Ib-10, (2S)-2-amino-3-{[5-(4-amino-8,9-dimethoxybenzo[c]-2,7-naphthyridin-2-yl)pyridin-3-yl]oxy}propan-1-ol]"
11,34,"COc1cc2ncc3c(N)nc(-c4cc(F)cc(CCCN)c4)cc3c2cc1OC [Ib-250, 2-(3-(3-Aminopropyl)-5-fluorophenyl)-8,9-dimethoxybenzo[c][2,7]naphthyridin-4-amine]"
12,40,"COc1cc2ncc3c(N)nc(-c4cncc(OC[C@@H](N)CN(C)c5cccc(Cl)c5)c4)cc3c2cc1OC [Ib-112, (2S)-3-{[5-(4-amino-8,9-dimethoxybenzo[c][2,7]naphthyridin-2-yl)pyridin-3-yl]oxy}-N1-(3-chlorophenyl)-N1-methylpropane-1,2-diamine]"
13,1000,"COc1cc2ncc3c(N)nc(-c4cccc(C(=O)N5CCN(c6ccccn6)CC5)c4)cc3c2cc1OC [Ib-247, 8,9-dimethoxy-2-{3-[(4-pyridin-2-ylpiperazin-1-yl)carbonyl]phenyl}benzo[c][2,7]naphthyridin-4-amine]"
14,64,"COc1cc2ncc3c(N)nc(-c4cncc(OC[C@@H](N)COc5cc(C(F)(F)F)ccc5F)c4)cc3c2cc1OC [Ib-144, 2-[5-({(2R)-2-amino-3-[2-fluoro-5-(trifluoromethyl)phenoxy]propyl}oxy)pyridin-3-yl]-8,9-dimethoxybenzo[c][2,7]naphthyridin-4-amine]"
15,2450,"COCCOc1cc2ncc3c(N)nc(N4CCCCC4C)cc3c2cc1OC (centres unmarked) [Ia-43, 9-methoxy-8-(2-methoxyethoxy)-2-(2-methylpiperidin-1-yl)benzo[c]-2,7-naphthyridin-4-amine]"
16,105,"COc1cc2ncc3c(N)nc(-c4cncc(Nc5ccccc5C#N)c4)cc3c2cc1OC [Ib-178, 2-{[5-(4-amino-8,9-dimethoxybenzo[c][2,7]naphthyridin-2-yl)pyridin-3-yl]amino}benzonitrile]"
17,12,"COc1cc2ncc3c(N)nc(-c4cncc(OC[C@@H](N)CNC(C)(C)Cc5ccc(F)cc5)c4)cc3c2cc1OC [Ib-87, (2S)-3-{[5-(4-amino-8,9-dimethoxybenzo[c][2,7]naphthyridin-2-yl)pyridin-3-yl]oxy}-N1-[2-(4-fluorophenyl)-1,1-dimethylethyl]propane-1,2-diamine]"
18,153,"COc1cc2ncc3c(N)nc(-c4cncc(Oc5cccc(N)n5)c4)cc3c2cc1OC [Ib-171, 2-{5-[(6-Aminopyridin-2-yl)oxy]pyridin-3-yl}-8,9-dimethoxybenzo[c][2,7]naphthyridin-4-amine]"

row,IC50 [nM],Compound
1,92,"COc1cc2ncc3c(N)nc(-c4cncc(OC[C@@H](N)CNC5CCCC5)c4)cc3c2cc1OC [Ib-101, (2S)-3-{[5-(4-amino-8,9-dimethoxybenzo[c][2,7]naphthyridin-2-yl)pyridin-3-yl]oxy}-N1-cyclopentylpropane-1,2-diamine]"
2,158,"COc1cc2ncc3c(N)nc(-c4cncc(Nc5cccnc5)c4)cc3c2cc1OC [Ib-200, 8,9-dimethoxy-2-[5-(pyridin-3-ylamino)pyridin-3-yl]benzo[c][2,7]naphthyridin-4-Amine]"
3,1280,"COCCOc1cc2ncc3c(N)nc(OC)cc3c2cc1OC [Ia-58, 2,9-Dimethoxy-8-(2-methoxyethoxy)benzo[c]-2,7-naphthyridin-4-amine]"
4,40,"COc1cc2ncc3c(N)nc(-c4cncc(OC[C@@H](N)CNC5CCC(O)CC5)c4)cc3c2cc1OC (stereo partly drawn) [Ib-91, 4-{[(2S)-2-amino-3-{[5-(4-amino-8,9-dimethoxybenzo[c][2,7]naphthyridin-2-yl)pyridin-3-yl]oxy}propyl]amino}cyclohexanol]"
5,4610,"COc1cc2ncc3c(N)nc(N4CC[C@@H](O)C4)cc3c2cc1OC [Ib-65, (3R)-1-(4-amino-8,9-dimethoxybenzo[c]-2,7-naphthyridin-2-yl)pyrrolidin-3-ol]"
6,164,"COc1cc2ncc3c(N)nc(-c4cncc(Nc5ccccc5C(N)=O)c4)cc3c2cc1OC [Ib-186, 2-{[5-(4-amino-8,9-dimethoxybenzo[c][2,7]naphthyridin-2-yl)pyridin-3-yl]amino}benzamide]"
7,476,"COc1cc2ncc3c(N)nc(-c4cncc(Nc5ccccn5)c4)cc3c2cc1OC [Ib-199, 8,9-dimethoxy-2-[5-(pyridin-2-ylamino)pyridin-3-yl]benzo[c][2,7]naphthyridin-4-Amine]"
8,3280,"COCCOc1cc2ncc3c(N)nc(N(C)C4CCN(C)C4)cc3c2cc1OC (centres unmarked) [Ia-52, 9-methoxy-8-(2-methoxyethoxy)-N2-methyl-N^2-(1-methylpyrrolidin-3-yl)benzo[c]-2,7-naphthyridine-2,4-diamine]"
9,205,"COc1cc2ncc3c(N)nc(-c4ccc5[nH]ncc5c4)cc3c2cc1OC [Ib-249, 2-(1H-indazol-5-yl)-8,9-dimethoxybenzo[c][2,7]naphthyridin-4-amine]"
10,27,"COc1cc2ncc3c(N)nc(-c4cncc(CCCN)c4)cc3c2cc1OC [Ib-256, 2-[5-(3-aminopropyl)pyridin-3-yl]-8,9-dimethoxybenzo[c][2,7]naphthyridin-4-amine]"
11,81,"COc1cc2ncc3c(N)nc(-c4cncc(Nc5ccc(CN)cc5)c4)cc3c2cc1OC [Ib-192, 2-(5-{[4-(aminomethyl)phenyl]amino}pyridin-3-yl)-8,9-dimethoxybenzo[c][2,7]naphthyridin-4-amine]"
12,10,"COc1cc2ncc3c(N)nc(-c4cncc(OC[C@@H](N)COc5ccncc5)c4)cc3c2cc1OC [Ib-151, 2-(5-{[(2S)-2-amino-3-(pyridin-4-yloxy)propyl]oxy}pyridin-3-yl)-8,9-dimethoxybenzo[c][2,7]naphthyridin-4-amine]"
13,1000,"COc1cc2ncc3c(N)nc(-c4cncc(Nc5ccccc5OCc5ccccc5)c4)cc3c2cc1OC [Ib-202, 2-(5-{[2-(benzyloxy)phenyl]amino}pyridin-3-yl)-8,9-dimethoxybenzo[c][2,7]naphthyridin-4-amine]"
14,477,"COc1cc2ncc3c(N)nc(-c4cncc(Nc5ccncc5)c4)cc3c2cc1OC [Ib-201, 8,9-dimethoxy-2-[5-(pyridin-4-ylamino)pyridin-3-yl]benzo[c][2,7]naphthyridin-4-Amine]"
15,7,"COc1cc2ncc3c(N)nc(-c4cncc(OC[C@@H](N)COc5ncccn5)c4)cc3c2cc1OC [Ib-149, 2-(5-{[(2R)-2-amino-3-(pyrimidin-2-yloxy)propyl]oxy}pyridin-3-yl)-8,9-dimethoxybenzo[c][2,7]naphthyridin-4-amine]"
16,2,"CC[C@@H](N)COc1cncc(-c2cc3c(cnc4cc(OC)c(OC)cc43)c(N)n2)c1 [Ib-18, 2-(5-{[(2R)-2-aminobutyl]oxy}pyridin-3-yl)-8,9-dimethoxybenzo[c]-2,7-naphthyridin-4-amine]"
17,283,"COc1cc2ncc3c(N)nc(-c4cncc(Nc5ccccc5)c4)cc3c2cc1OC [Ib-203, 2-(5-anilinopyridin-3-yl)-8,9-dimethoxybenzo[c][2,7]naphthyridin-4-amine]"
